Experimental data taken from PubChem BioAssay AID1963837 (Molecular Pharmacology Branch, DTP, NCI, 2024).
Where “and” joins values, the source holds several entries; their conditions need not be identical. Equal entries are not always repeated.

Test system: 843126-344-R-J1-PDC complex spheroid viability
Test: Anticancer human tumor 843126-344-R-J1-PDC patient-derived melanoma cell line growth inhibition [POLQ]
Details: for viability, T/C: stronger effect = lower value
Protocol: Multicellular complex tumor spheroid response to Polymerase (POL) inhibitors (novobiocin, ART-558, RP6685) in combination with a variety of drugs and investigational agents in selected tumor cell lines
The POL inhibitors (novobiocin, ART-558, and RP6685) were evaluated both individually and in combination with standard of care and investigational anticancer small molecules within a complex spheroid model of solid tumors. . Complex spheroids include a stromal component modeled by human endothelial cells (HUVEC) and fibroblasts modeled by human mesenchymal stem cells (MSCs). The concentration ranges selected for each drug and investigational agent were based upon clinically achievable concentrations if the clinical Cmax of the agent was known.
Compounds. The drugs and investigational agents: novobiocin (NSC847541), ART-558 (NSC835418), RP-6685 (NSC848927), peposertib (NSC802822), ceralasertib (NSC780249), elimusertib (NSC800525), camonsertib (NSC841442), AZD-1390 (NSC803789), olaparib (NSC753686), talazoparib (NSC767125), rucaparib (NSC756644), sotorasib (NSC818433), MRTX-1133 (NSC836407), SN-38 (NSC673596), topotecan (NSC609699), epotoside (NSC141540), doxorubicin (NSC123127), gemcitabine (NSC613327), 5-fluorouracil (NSC19893), paclitaxel (NSC125973), vemurafenib (NSC761431), MSA-2 (NSC828583), SN-011 (NSC837082), adavosertib (NSC754352), prexasertib (NSC758257), carboplatin (NSC241240) and oxaliplatin (NSC266046), were obtained from the National Cancer Institute (NCI) Developmental Therapeutics Program Chemical Repository (21). The FDA-approved anticancer drug set is available from the Developmental Therapeutics Program at https://dtp.cancer.gov/organization/dscb/obtaining/. […] The stock solutions were prepared in dimethyl sulfoxide (DMSO, Sigma-Aldrich, St. Louis, MO, cat. D2650), except for the platinum compounds which were prepared in saline (Quality Biological, Gaithersburg, MD, cat. 114-055-101), at 800-fold the tested concentration and stored at -70 degrees C prior to their use. All drugs and investigational agents were tested over a range starting from a high concentration at or near the clinical Cmax and decreasing in half-log increments. If the clinical Cmax for an agent had not been determined, the highest concentration tested was 10 microM, except for SN-38, which was tested at a high concentration of 1 microM.
Cell Culture. All cells were maintained in an incubator at 37 degrees C and 5% CO2 with 95% humidity. The PDC lines were cultured according to standard operating procedures established by the NCI PDMR (https://pdmr.cancer.gov). Table 3 of the manuscript, lists the cell lines along with the number of the three cell types plated to form the mct-spheroids and media for tumor cell growth. After thawing, all PDC lines, except 997537-175-T-J1-PDC and 415267-285-R-J2-PDC, were cultured in Matrigel-coated flasks prepared with a working solution of 1X Ham's F-12 nutrient mix, without supplementation (Thermo Fisher Scientific, cat. 11765054), 100 U/mL penicillin-streptomycin (Thermo Fisher Scientific, cat. 15140122), and 2.5% Matrigel (Corning Inc., Corning, NY, cat. 354248) for the first three passages. The two PDC lines 997537-175-T-J1-PDC and 415267-285-R-J2-PDC were cultured on uncoated flasks. The 857933-349-R-J2-PDC line was cultured in 6C/Colon 1B media containing advanced DMEM/F-12 (Thermo Fisher Scientific, cat. 12634028), 10 mM HEPES (Thermo Fisher Scientific, cat. 15630080), 1X GlutaMAX supplement (Thermo Fisher Scientific, cat. 35050061), 0.1 mg/mL primocin (InvivoGen, San Diego, CA, cat. ant-pm-2), 10% defined fetal bovine serum, heat inactivated (HyClone Laboratories Inc., Logan, UT, cat. SH30070.03HI), 50% L-WRN conditioned media (ATCC, cat. CRL-3276), 1.25 mM N-Acetyl-L-cysteine (Sigma-Aldrich, cat. A9165), 10 mM nicotinamide (Sigma-Aldrich, cat. N0636), 1X B-27 supplement (Thermo Fisher Scientific, cat. 17504044), 1X N-2 supplement (Thermo Fisher Scientific, cat. […]

[1] = curve of first compound, second compound 0.0316 µM
[2] = curve of first compound, second compound 0.1 µM
[3] = curve of first compound, second compound 0.316 µM
[4] = curve of first compound, second compound 1 µM
[5] = curve of first compound, second compound 3.16 µM
[6] = curve of first compound, second compound 10 µM
[7] = second compound 0.0316 µM, first compound 0.0316 µM
[8] = second compound 0.0316 µM, first compound 0.1 µM
[9] = second compound 0.0316 µM, first compound 0.316 µM
[10] = second compound 0.0316 µM, first compound 1 µM
[11] = second compound 0.0316 µM, first compound 3.16 µM
[12] = second compound 0.0316 µM, first compound 10 µM
[13] = second compound 0.1 µM, first compound 0.0316 µM
[14] = second compound 0.1 µM, first compound 0.1 µM
[15] = second compound 0.1 µM, first compound 0.316 µM
[16] = second compound 0.1 µM, first compound 1 µM
[17] = second compound 0.1 µM, first compound 3.16 µM
[18] = second compound 0.1 µM, first compound 10 µM
[19] = second compound 0.316 µM, first compound 0.0316 µM
[20] = second compound 0.316 µM, first compound 0.1 µM
[21] = second compound 0.316 µM, first compound 0.316 µM
[22] = second compound 0.316 µM, first compound 1 µM
[23] = second compound 0.316 µM, first compound 3.16 µM
[24] = second compound 0.316 µM, first compound 10 µM
[25] = second compound 1 µM, first compound 0.0316 µM
[26] = second compound 1 µM, first compound 0.1 µM
[27] = second compound 1 µM, first compound 0.316 µM
[28] = second compound 1 µM, first compound 1 µM
[29] = second compound 1 µM, first compound 3.16 µM
[30] = second compound 1 µM, first compound 10 µM
[31] = second compound 3.16 µM, first compound 0.0316 µM
[32] = second compound 3.16 µM, first compound 0.1 µM
[33] = second compound 3.16 µM, first compound 0.316 µM
[34] = second compound 3.16 µM, first compound 1 µM
[35] = second compound 3.16 µM, first compound 3.16 µM
[36] = second compound 3.16 µM, first compound 10 µM
[37] = second compound 10 µM, first compound 0.0316 µM
[38] = second compound 10 µM, first compound 0.1 µM
[39] = second compound 10 µM, first compound 0.316 µM
[40] = second compound 10 µM, first compound 1 µM
[41] = second compound 10 µM, first compound 3.16 µM
[42] = second compound 10 µM, first compound 10 µM
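For viability, T/C in this document: spheroids exposed to drugs for seven days before readout.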

## COc1ccc([C@@H](O)c2cc(-c3ncnc4cc(N5CCOCC5)ccc34)c(F)cc2Cl)nn1 + COC1C(OC(N)=O)C(O)C(Oc2ccc3c(O)c(NC(=O)c4ccc(O)c(CC=C(C)C)c4)c(=O)oc3c2C)OC1(C)C
[1]
  IC50: > 10 µM
[2]
  IC50: > 10 µM
[3]
  IC50: 7.08 µM
[4]
  IC50: > 10 µM
[5]
  IC50: > 10 µM
[6]
  IC50: 9.31 µM
[7]
  viability, T/C: 116%
[8]
  viability, T/C: 82.3%
[9]
  viability, T/C: 105%
[10]
  viability, T/C: 84.7%
[11]
  viability, T/C: 85.7%
[12]
  viability, T/C: 53.4%
[13]
  viability, T/C: 85.8%
[14]
  viability, T/C: 85.7%
[15]
  viability, T/C: 116%
[16]
  viability, T/C: 79.5%
[17]
  viability, T/C: 81.6%
[18]
  viability, T/C: 54.1%
[19]
  viability, T/C: 93.4%
[20]
  viability, T/C: 98.2%
[21]
  viability, T/C: 92.8%
[22]
  viability, T/C: 89%
[23]
  viability, T/C: 63%
[24]
  viability, T/C: 44.4%
[25]
  viability, T/C: 95.8%
[26]
  viability, T/C: 80.1%
[27]
  viability, T/C: 92.8%
[28]
  viability, T/C: 91%
[29]
  viability, T/C: 85.6%
[30]
  viability, T/C: 54.9%
[31]
  viability, T/C: 87.8%
[32]
  viability, T/C: 102%
[33]
  viability, T/C: 90.3%
[34]
  viability, T/C: 73.8%
[35]
  viability, T/C: 85%
[36]
  viability, T/C: 49.9%
[37]
  viability, T/C: 87%
[38]
  viability, T/C: 76%
[39]
  viability, T/C: 109%
[40]
  viability, T/C: 76%
[41]
  viability, T/C: 69.6%
[42]
  viability, T/C: 48.5%

## O=C(Nc1ccc(O)c(NS(=O)(=O)c2ccc(F)cc2)c1)c1ccc(-c2ccccc2)cc1
Compound 0.0316 µM
  viability, T/C: 105% and 76% and 99.6%
Compound 0.1 µM
  viability, T/C: 95.6% and 92.3% and 104%
Compound 0.316 µM
  viability, T/C: 105% and 88.3% and 87.2%
Compound 1 µM
  viability, T/C: 99.5% and 85.9% and 100%
Compound 3.16 µM
  viability, T/C: 87.3% and 85.3% and 95.2%
Compound 10 µM
  viability, T/C: 74.3% (2×) and 75.3%
Curve of compound
  IC50: > 10 µM

## COc1ccc([C@@H](O)c2cc(-c3ncnc4cc(N5CCOCC5)ccc34)c(F)cc2Cl)nn1 + Nc1ccc(C#CCN(C(=O)Cc2ncc(C(F)(F)F)cc2C(F)(F)F)c2ccc(F)cc2)nn1
[1]
  IC50: > 10 µM
[2]
  IC50: > 10 µM
[3]
  IC50: > 10 µM
[4]
  IC50: > 10 µM
[5]
  IC50: > 10 µM
[6]
  IC50: > 10 µM
[7]
  viability, T/C: 95.5%
[8]
  viability, T/C: 94.9%
[9]
  viability, T/C: 87.5%
[10]
  viability, T/C: 87.9%
[11]
  viability, T/C: 80.9%
[12]
  viability, T/C: 62.9%
[13]
  viability, T/C: 95.7%
[14]
  viability, T/C: 95.8%
[15]
  viability, T/C: 103%
[16]
  viability, T/C: 82.9%
[17]
  viability, T/C: 96%
[18]
  viability, T/C: 68.1%
[19]
  viability, T/C: 86%
[20]
  viability, T/C: 90.3%
[21]
  viability, T/C: 87%
[22]
  viability, T/C: 85.1%
[23]
  viability, T/C: 79.5%
[24]
  viability, T/C: 80.7%
[25]
  viability, T/C: 88.1%
[26]
  viability, T/C: 102%
[27]
  viability, T/C: 91.8%
[28]
  viability, T/C: 88.5%
[29]
  viability, T/C: 74.5%
[30]
  viability, T/C: 64%
[31]
  viability, T/C: 100%
[32]
  viability, T/C: 99.3%
[33]
  viability, T/C: 92%
[34]
  viability, T/C: 73.6%
[35]
  viability, T/C: 77.8%
[36]
  viability, T/C: 64.6%
[37]
  viability, T/C: 80.2%
[38]
  viability, T/C: 94.8%
[39]
  viability, T/C: 85.4%
[40]
  viability, T/C: 82.7%
[41]
  viability, T/C: 78.2%
[42]
  viability, T/C: 62.6%
